Test results as given in US12679822B2, “Alkenyl pyrimidine compound, preparation method therefor, and application thereof” (Hongyun Biotech Co., Ltd., priority 2020, dated 2026).

How the values were obtained:
Format in all cases: cell-based
[1] = molecular target: BaF3 cell lines stably transfected with kinase EGFR Del/T790M (Homo sapiens, UniProt P00533, T790M, cells depend on it, form not given); assay: Growth inhibition of BaF3 cell line stably transfected with kinase EGFR Del/T790M (MTS); details: 48 h, read-out: growth inhibitory activity IC50, Del/T790M
In short: (§1)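 Read-out: MTS absorbance at 490 nm after 1-4 h reagent incubation. Cells exposed 48 h to compound (10 μM top, ⅓ steps, 8 points, 0.1% DMSO) in DMEM or RPMI 1640 with 10% FBS. IC50 derived from growth inhibition normalized to DMSO and blank wells.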

[2] = molecular target: BaF3 cell lines stably transfected with kinase EGFR L858R/T790M (Homo sapiens, UniProt P00533, T790M/L858R, cells depend on it); assay: Growth inhibition of BaF3 cell line stably transfected with kinase EGFR L858R/T790M (MTS); details: 48 h, read-out: growth inhibitory activity IC50, L858R/T790M
Sequence of BaF3 cell lines stably transfected with kinase EGFR L858R/T790M (P00533 whole entry T790M/L858R): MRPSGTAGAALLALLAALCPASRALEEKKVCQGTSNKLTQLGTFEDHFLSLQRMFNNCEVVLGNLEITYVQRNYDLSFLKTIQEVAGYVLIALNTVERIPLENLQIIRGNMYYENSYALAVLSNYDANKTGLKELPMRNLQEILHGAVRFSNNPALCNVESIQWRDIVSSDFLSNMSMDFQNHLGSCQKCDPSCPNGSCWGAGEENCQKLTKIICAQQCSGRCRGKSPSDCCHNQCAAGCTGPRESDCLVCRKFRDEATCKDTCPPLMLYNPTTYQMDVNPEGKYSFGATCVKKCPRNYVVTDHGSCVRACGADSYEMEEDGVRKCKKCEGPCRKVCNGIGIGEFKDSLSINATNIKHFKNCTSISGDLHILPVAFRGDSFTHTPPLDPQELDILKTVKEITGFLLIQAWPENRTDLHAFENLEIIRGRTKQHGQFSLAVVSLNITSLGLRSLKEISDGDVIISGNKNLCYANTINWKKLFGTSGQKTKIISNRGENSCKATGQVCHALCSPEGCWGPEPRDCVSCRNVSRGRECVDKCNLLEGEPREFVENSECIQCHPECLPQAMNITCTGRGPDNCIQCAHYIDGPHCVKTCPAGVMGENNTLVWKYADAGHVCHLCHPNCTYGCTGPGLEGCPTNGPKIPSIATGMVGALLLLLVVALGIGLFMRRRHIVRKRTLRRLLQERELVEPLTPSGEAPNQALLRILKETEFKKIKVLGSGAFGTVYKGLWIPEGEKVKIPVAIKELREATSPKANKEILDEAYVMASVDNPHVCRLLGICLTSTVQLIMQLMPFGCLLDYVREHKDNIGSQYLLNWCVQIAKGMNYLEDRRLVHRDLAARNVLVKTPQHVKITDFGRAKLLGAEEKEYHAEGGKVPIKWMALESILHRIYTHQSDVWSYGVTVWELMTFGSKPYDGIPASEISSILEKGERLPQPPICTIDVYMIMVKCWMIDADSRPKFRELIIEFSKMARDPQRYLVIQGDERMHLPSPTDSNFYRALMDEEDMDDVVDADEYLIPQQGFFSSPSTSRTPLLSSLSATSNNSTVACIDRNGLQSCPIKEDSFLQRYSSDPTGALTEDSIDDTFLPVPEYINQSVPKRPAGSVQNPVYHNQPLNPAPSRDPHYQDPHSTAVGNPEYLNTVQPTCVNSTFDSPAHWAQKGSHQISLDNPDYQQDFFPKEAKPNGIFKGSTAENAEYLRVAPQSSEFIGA
In short: as §1

[3] = molecular target: BaF3 cell lines stably transfected with kinase EGFR Del (Homo sapiens, UniProt P00533, cells depend on it, form not given); assay: Growth inhibition of BaF3 cell line stably transfected with kinase EGFR Del (MTS); details: 48 h, read-out: growth inhibitory activity IC50, Del
Sequence of BaF3 cell lines stably transfected with kinase EGFR Del (P00533 with tags, fused parts or gaps DEL746-750): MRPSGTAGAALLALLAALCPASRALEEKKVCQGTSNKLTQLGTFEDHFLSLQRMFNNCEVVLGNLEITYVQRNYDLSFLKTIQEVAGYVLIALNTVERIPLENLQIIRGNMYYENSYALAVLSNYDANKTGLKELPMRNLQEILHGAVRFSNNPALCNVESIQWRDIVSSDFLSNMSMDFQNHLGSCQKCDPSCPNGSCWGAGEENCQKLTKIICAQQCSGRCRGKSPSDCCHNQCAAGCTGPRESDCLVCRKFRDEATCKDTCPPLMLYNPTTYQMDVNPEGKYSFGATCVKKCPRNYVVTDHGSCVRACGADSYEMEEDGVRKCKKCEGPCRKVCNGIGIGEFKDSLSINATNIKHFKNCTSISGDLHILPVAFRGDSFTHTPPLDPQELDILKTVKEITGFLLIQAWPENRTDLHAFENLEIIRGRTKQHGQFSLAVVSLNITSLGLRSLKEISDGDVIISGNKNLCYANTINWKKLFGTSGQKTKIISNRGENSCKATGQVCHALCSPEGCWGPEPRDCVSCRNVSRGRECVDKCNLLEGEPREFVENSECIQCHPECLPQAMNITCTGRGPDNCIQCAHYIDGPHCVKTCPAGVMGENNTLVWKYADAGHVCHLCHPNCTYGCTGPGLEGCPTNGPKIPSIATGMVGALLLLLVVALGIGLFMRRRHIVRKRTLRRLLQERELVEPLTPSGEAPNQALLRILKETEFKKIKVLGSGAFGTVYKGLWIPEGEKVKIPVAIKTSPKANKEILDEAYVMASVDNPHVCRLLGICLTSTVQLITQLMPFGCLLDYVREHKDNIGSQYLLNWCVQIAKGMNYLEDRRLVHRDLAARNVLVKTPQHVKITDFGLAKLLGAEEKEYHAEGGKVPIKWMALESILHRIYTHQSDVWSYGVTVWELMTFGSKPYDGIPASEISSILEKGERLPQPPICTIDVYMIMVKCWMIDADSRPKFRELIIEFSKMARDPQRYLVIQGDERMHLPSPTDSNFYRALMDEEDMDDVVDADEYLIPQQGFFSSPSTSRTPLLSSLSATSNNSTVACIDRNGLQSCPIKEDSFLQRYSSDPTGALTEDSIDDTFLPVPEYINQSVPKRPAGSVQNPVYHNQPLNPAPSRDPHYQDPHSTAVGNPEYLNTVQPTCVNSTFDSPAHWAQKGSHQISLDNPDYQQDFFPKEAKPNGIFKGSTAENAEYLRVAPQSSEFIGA
In short: as §1

[4] = molecular target: BaF3 cell lines stably transfected with kinase EGFR L858R (Homo sapiens, UniProt P00533, L858R, cells depend on it); assay: Growth inhibition of BaF3 cell line stably transfected with kinase EGFR L858R (MTS); details: 48 h, read-out: growth inhibitory activity IC50, L858R
Sequence of BaF3 cell lines stably transfected with kinase EGFR L858R (P00533 whole entry L858R): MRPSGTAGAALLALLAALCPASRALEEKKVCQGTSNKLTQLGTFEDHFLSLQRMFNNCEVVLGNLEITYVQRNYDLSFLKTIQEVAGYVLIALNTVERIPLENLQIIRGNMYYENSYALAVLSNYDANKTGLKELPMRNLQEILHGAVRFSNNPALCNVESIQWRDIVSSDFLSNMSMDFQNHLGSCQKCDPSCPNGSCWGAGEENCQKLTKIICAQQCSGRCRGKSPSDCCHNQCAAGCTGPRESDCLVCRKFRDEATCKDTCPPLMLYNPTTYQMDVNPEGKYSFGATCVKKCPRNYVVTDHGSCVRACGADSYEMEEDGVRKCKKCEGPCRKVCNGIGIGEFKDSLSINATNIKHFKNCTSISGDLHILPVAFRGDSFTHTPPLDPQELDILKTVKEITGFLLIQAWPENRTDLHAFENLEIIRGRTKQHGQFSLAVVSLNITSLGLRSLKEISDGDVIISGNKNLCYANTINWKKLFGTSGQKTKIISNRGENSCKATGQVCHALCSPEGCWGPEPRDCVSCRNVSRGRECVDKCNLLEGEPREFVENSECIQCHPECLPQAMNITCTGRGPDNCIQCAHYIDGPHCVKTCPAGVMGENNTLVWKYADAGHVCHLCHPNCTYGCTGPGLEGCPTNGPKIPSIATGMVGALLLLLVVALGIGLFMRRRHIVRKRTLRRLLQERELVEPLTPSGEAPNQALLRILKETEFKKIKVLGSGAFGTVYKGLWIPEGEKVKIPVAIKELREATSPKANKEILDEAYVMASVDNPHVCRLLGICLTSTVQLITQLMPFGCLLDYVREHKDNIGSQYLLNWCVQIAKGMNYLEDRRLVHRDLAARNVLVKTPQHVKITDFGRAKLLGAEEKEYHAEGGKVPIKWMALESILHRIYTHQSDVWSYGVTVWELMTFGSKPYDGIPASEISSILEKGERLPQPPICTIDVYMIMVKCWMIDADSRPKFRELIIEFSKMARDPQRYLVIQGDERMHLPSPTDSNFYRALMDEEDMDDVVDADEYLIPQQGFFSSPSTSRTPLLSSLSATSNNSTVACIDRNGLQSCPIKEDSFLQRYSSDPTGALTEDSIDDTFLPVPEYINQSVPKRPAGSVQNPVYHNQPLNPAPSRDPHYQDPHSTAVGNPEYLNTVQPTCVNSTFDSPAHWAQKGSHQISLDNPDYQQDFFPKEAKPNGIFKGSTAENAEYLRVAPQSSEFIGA
In short: as §1

[5] = molecular target: BaF3 cell lines stably transfected with kinase EGFR Del/T790M/C797S (Homo sapiens, UniProt P00533, T790M/C797S, cells depend on it, form not given); assay: Growth inhibition of BaF3 cell line stably transfected with kinase EGFR Del/T790M/C797S (MTS); details: 48 h, read-out: growth inhibitory activity IC50, Del/T790M/C797S
Sequence of BaF3 cell lines stably transfected with kinase EGFR Del/T790M/C797S (P00533 with tags, fused parts or gaps DEL746-750/T790M/C797S, form open): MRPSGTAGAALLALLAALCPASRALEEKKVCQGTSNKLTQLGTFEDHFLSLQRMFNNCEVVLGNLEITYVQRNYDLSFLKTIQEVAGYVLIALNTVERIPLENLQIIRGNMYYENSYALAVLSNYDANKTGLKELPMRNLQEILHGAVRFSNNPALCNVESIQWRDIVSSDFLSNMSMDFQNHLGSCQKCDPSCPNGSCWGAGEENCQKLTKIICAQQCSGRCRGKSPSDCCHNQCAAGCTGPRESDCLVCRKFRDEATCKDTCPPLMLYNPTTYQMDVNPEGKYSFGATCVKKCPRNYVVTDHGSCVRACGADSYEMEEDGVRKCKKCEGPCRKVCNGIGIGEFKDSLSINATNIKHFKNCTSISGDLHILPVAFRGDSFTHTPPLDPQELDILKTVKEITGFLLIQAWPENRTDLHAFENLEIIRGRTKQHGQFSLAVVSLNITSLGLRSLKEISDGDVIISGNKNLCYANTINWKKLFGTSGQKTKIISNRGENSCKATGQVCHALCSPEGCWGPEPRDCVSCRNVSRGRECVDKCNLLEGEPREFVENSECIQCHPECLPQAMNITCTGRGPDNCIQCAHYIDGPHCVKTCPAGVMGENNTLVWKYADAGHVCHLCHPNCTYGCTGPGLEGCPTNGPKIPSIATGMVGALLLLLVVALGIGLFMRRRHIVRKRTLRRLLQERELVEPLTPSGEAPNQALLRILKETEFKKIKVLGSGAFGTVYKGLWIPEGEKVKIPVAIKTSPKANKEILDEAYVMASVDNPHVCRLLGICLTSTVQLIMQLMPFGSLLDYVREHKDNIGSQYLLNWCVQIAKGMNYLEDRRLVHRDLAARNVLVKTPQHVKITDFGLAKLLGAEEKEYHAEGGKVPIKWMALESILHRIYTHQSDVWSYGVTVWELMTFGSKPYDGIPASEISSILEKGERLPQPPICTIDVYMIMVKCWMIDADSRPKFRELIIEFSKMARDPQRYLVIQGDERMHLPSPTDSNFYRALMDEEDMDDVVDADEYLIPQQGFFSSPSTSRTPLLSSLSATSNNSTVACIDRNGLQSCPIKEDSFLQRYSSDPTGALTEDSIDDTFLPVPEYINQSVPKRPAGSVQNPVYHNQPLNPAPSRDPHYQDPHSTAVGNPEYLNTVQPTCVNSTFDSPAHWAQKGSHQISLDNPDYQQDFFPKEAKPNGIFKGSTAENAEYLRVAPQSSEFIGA
In short: as §1

[6] = molecular target: BaF3 cell lines stably transfected with kinase EGFR L858R/T790M/C797S (Homo sapiens, UniProt P00533, T790M/C797S/L858R, cells depend on it); assay: Growth inhibition of BaF3 cell line stably transfected with kinase EGFR L858R/T790M/C797S (MTS); details: 48 h, read-out: growth inhibitory activity IC50, L858R/T790M/C797S
In short: as §1

SMILES | GI50 [1] [nM] | GI50 [2] [nM] | GI50 [3] [nM] | GI50 [4] [nM] | GI50 [5] [nM] | GI50 [6] [nM]
C=Cc1cnc(Nc2cc(CC)c(N3CCC(N4CCN(C)CC4)CC3)cc2OC(F)(F)F)nc1Nc1ccc2nccnc2c1N(C)S(C)(=O)=O [II-6] | ≤ 50 | 50 to 500 | 50 to 500 | 50 to 500 | ≤ 50 | 50 to 500
C=Cc1cnc(Nc2cc(CC)c(N3CCC(N(C)C)CC3)cc2OC)nc1Nc1ccc2nccnc2c1NS(C)(=O)=O [II-39] | ≤ 50 | ≤ 50 | ≤ 50 | ≤ 50 | ≤ 50 | ≤ 50
C=Cc1cnc(Nc2cc(CC)c(N3CCC(N4CCNCC4)CC3)cc2OC)nc1Nc1ccc2nccnc2c1N(C)S(C)(=O)=O [II-52] | 50 to 500 | ≤ 50 | 50 to 500 | 50 to 500 | ≤ 50 | ≤ 50
C=Cc1cnc(Nc2cc(Cc3ccccc3)c(N3CCC(N4CCN(C)CC4)CC3)cc2OC)nc1Nc1ccc2nccnc2c1N(C)S(C)(=O)=O [II-19] | 50 to 500 | 500 to 2500 | 500 to 2500 | 500 to 2500 | ≤ 50 | 50 to 500
